Data: the NIST ThermoML archive (doi:10.1021/acs.jced.6b00959)

Assay: molar heat capacity at constant pressure
Details: Liquid, Flow calorimetry

C=C(F)C(F)(F)F [2,3,3,3-tetrafluoro-1-propene]
Details | molar heat capacity at constant pressure [J/K/mol]
303.53 K, 2030 kPa | 157.15
303.55 K, 2530 kPa | 156.01
303.58 K, 1570 kPa | 160.11
303.6 K, 8010 kPa | 146.09
303.6 K, 8490 kPa | 146.2
303.6 K, 10010 kPa | 145.75
303.61 K, 6980 kPa | 146.66
303.61 K, 7490 kPa | 146.89
303.61 K, 8980 kPa | 145.75
303.61 K, 9470 kPa | 145.75
303.67 K, 10990 kPa | 144.49
303.72 K, 3040 kPa | 154.41
303.72 K, 10520 kPa | 144.95
303.73 K, 5000 kPa | 150.88
303.74 K, 3530 kPa | 154.18
303.75 K, 4020 kPa | 153.16
303.75 K, 5520 kPa | 150.19
303.77 K, 6510 kPa | 148.6
303.79 K, 11450 kPa | 144.03
303.79 K, 12070 kPa | 143.69
303.8 K, 5980 kPa | 148.82
303.81 K, 4520 kPa | 151.45
313.61 K, 6020 kPa | 154.3
313.63 K, 5000 kPa | 157.04
313.64 K, 4490 kPa | 158.18
313.64 K, 7500 kPa | 151.68
313.64 K, 7980 kPa | 151.11
313.65 K, 8490 kPa | 150.65
313.66 K, 1510 kPa | 166.04
313.66 K, 4000 kPa | 159.77
313.66 K, 6990 kPa | 152.82
313.67 K, 2010 kPa | 165.36
313.69 K, 2510 kPa | 165.02
313.69 K, 3000 kPa | 164.11
313.69 K, 6500 kPa | 153.96
313.7 K, 9500 kPa | 149.85
313.7 K, 10010 kPa | 149.51
313.7 K, 11460 kPa | 147.8
313.72 K, 3510 kPa | 162.62
313.72 K, 8970 kPa | 150.31
313.72 K, 10500 kPa | 148.94
313.72 K, 10980 kPa | 148.6
313.72 K, 12040 kPa | 147.46
313.79 K, 5490 kPa | 154.53
323.62 K, 2020 kPa | 170.26
323.63 K, 6940 kPa | 155.67
323.64 K, 7520 kPa | 154.98
323.64 K, 8000 kPa | 154.41
323.64 K, 8510 kPa | 153.73
323.65 K, 2500 kPa | 168.67
323.65 K, 9540 kPa | 152.25
323.66 K, 8960 kPa | 153.39
323.66 K, 9990 kPa | 152.02
323.68 K, 3010 kPa | 167.41
323.68 K, 10980 kPa | 151.11
323.69 K, 3510 kPa | 165.93
323.69 K, 4520 kPa | 162.51
323.69 K, 6490 kPa | 157.61
323.69 K, 10530 kPa | 151.79
323.7 K, 11470 kPa | 150.31
323.71 K, 3990 kPa | 164.79
323.71 K, 5020 kPa | 161.37
323.71 K, 5500 kPa | 159.89
323.71 K, 5990 kPa | 159.09
323.73 K, 12010 kPa | 150.08
333.61 K, 5490 kPa | 165.47
333.63 K, 3000 kPa | 179.5
333.63 K, 5980 kPa | 164.68
333.66 K, 3480 kPa | 177.56
333.66 K, 4500 kPa | 170.72
333.66 K, 7020 kPa | 161.71
333.67 K, 2080 kPa | 185.77
333.68 K, 2520 kPa | 183.95
333.68 K, 5000 kPa | 169.12
333.68 K, 6510 kPa | 162.74
333.69 K, 7500 kPa | 161.03
333.69 K, 9010 kPa | 159.09
333.69 K, 9990 kPa | 156.69
333.71 K, 4040 kPa | 175.4
333.72 K, 8010 kPa | 160.68
333.72 K, 8500 kPa | 159.66
333.72 K, 9490 kPa | 157.61
333.79 K, 10520 kPa | 155.21
333.79 K, 11000 kPa | 154.75
333.82 K, 11480 kPa | 154.07
333.82 K, 12030 kPa | 153.61
343.67 K, 10510 kPa | 157.83
343.68 K, 2530 kPa | 204.93
343.68 K, 3510 kPa | 187.26
343.68 K, 11500 kPa | 156.58
343.69 K, 11060 kPa | 156.92
343.7 K, 4490 kPa | 178.48
343.7 K, 9470 kPa | 159.89
343.7 K, 12010 kPa | 155.89
343.71 K, 7000 kPa | 165.47
343.72 K, 6040 kPa | 169.35
343.73 K, 6510 kPa | 168.55
343.73 K, 7500 kPa | 164.45
343.73 K, 7980 kPa | 163.76
343.74 K, 3990 kPa | 183.49
343.75 K, 5020 kPa | 175.74
343.75 K, 10020 kPa | 159.54
343.77 K, 8520 kPa | 163.19
343.79 K, 3010 kPa | 196.61
343.8 K, 9010 kPa | 162.51
343.81 K, 5560 kPa | 173.23
353.69 K, 10520 kPa | 163.99
353.71 K, 6510 kPa | 177.79
353.71 K, 8500 kPa | 169.24
353.73 K, 4510 kPa | 196.61
353.73 K, 4990 kPa | 190.11
353.73 K, 5500 kPa | 185.77
353.73 K, 11010 kPa | 162.85
353.74 K, 8990 kPa | 168.33
353.75 K, 6990 kPa | 175.97
353.76 K, 11520 kPa | 162.62
353.77 K, 9530 kPa | 166.96
353.78 K, 6040 kPa | 182.58
353.78 K, 12010 kPa | 161.94
353.79 K, 7490 kPa | 173.8
353.79 K, 10010 kPa | 165.93
353.81 K, 7990 kPa | 172.66
363.69 K, 6030 kPa | 189.42
363.73 K, 10520 kPa | 167.98
363.74 K, 5480 kPa | 198.2
363.75 K, 4510 kPa | 225
363.75 K, 7990 kPa | 175.85
363.76 K, 7020 kPa | 181.78
363.76 K, 10010 kPa | 169.12
363.76 K, 11050 kPa | 167.3
363.77 K, 6500 kPa | 186.46
363.78 K, 4990 kPa | 209.38
363.78 K, 7530 kPa | 178.7
363.78 K, 8990 kPa | 172.09
363.78 K, 11500 kPa | 166.96
363.79 K, 8510 kPa | 174.26
363.8 K, 9490 kPa | 171.06
363.83 K, 12080 kPa | 166.96
373.09 K, 4510 kPa | 297.19
373.19 K, 4990 kPa | 241.54
373.24 K, 5480 kPa | 217.82
373.28 K, 5980 kPa | 202.31
373.3 K, 6490 kPa | 191.25
373.3 K, 7000 kPa | 185.09
373.3 K, 7520 kPa | 180.3
373.32 K, 8030 kPa | 177.33
373.32 K, 8510 kPa | 174.94
373.32 K, 8990 kPa | 172.32
373.34 K, 9510 kPa | 171.52
373.36 K, 9990 kPa | 170.95
373.38 K, 10530 kPa | 169.58
373.39 K, 11020 kPa | 168.44
373.4 K, 11510 kPa | 167.87
373.42 K, 11980 kPa | 167.41
